Assay results from US20220169598A1, “HALOGENATED PHENYLSULFONAMIDE HYDROXAMIC ACID COMPOUNDS, COMPOSITIONS AND USES THEREOF AS SELECTIVE HDAC6 INHIBITORS” (2681603 ONTARIO INC., priority 2019, published 2022).
Like-named read-outs stand apart in the source and are kept apart here.

What was measured:
[1] = tested on: MV-4-11; test: Cytotoxicity in cell lines; format: cell-based; conditions: Homo sapiens
Method: (§1) The cytotoxicity of exemplary compounds of the application was tested in multiple cell lines including MV-4-11, MOLM-13, MCF-7, MRC9, K562 and MM.1S. The therapeutic index was evaluated by determining the toxicity of the exemplary compounds in healthy cell lines including fibroblasts and HUVEC.

[2] = tested on: K562; test: Cytotoxicity in cell lines; format: cell-based; conditions: Homo sapiens
Method: as §1

[3] = tested on: MOLM-13; test: Cytotoxicity in cell lines; format: cell-based; conditions: Homo sapiens
Method: as §1

[4] = tested on: Normal Human Fibroblast; test: Toxicity in healthy cell lines; format: cell-based; conditions: read-out: IC50 Normal Human Fibroblast
Method: as §1

[5] = tested on: HUVEC; test: Toxicity in healthy cell lines; format: cell-based; conditions: Homo sapiens, read-out: IC50 HUVEC
Method: as §1

[6] = Kinetic solubility by analytical HPLC; format: physicochemical; conditions: PBS with 5% (v/v) DMSO, aqueous with cosolvent or surfactant or cyclodextrin, kinetic from dmso stock; PBS + 5% DMSO; initial concentration 300 μM; read-out: Saturation Concentration
Method: The initial concentration of each exemplary compound was 300 μM.

[7] = tested on: MRC9; test: Cytotoxicity in cell lines; format: cell-based; conditions: Table 5
Method: as §1

[8] = molecular target: T1, HDAC6 (Homo sapiens, UniProt Q9UBN7); test: in vitro activity-based HDAC assay; format: biochemical; conditions: ranges given; read-out: IC50 for HDAC6
T1 sequence (Q9UBN7 1-1215): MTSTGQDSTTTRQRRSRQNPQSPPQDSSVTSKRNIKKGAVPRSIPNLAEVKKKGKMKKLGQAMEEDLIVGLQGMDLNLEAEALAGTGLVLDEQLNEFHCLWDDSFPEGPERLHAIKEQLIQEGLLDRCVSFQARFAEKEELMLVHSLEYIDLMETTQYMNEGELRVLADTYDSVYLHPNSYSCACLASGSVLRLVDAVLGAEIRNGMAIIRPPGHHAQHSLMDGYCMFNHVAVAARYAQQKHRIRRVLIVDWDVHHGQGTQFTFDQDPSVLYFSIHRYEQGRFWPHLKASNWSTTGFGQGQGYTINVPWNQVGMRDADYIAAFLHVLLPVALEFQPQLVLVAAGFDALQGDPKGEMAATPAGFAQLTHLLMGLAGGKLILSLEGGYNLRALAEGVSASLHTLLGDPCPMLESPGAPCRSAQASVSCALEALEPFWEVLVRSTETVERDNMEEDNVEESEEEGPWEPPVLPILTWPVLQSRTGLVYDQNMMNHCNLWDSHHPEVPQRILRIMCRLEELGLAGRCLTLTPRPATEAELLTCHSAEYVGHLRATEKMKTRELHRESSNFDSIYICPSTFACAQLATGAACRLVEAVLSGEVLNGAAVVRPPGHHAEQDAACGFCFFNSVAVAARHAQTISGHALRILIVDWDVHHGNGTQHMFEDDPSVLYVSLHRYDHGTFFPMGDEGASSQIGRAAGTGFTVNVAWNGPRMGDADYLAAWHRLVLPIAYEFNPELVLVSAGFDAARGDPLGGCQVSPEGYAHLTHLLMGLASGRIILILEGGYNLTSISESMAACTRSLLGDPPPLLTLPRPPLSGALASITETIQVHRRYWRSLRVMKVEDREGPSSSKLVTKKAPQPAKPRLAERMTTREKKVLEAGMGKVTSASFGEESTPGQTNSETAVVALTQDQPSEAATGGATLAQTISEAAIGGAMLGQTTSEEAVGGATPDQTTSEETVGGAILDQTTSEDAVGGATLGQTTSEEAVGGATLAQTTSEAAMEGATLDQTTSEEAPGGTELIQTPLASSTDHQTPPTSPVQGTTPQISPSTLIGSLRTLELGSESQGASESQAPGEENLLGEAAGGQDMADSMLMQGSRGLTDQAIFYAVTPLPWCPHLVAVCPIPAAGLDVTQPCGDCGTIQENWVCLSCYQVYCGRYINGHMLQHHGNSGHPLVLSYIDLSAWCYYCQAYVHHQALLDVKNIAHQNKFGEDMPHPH
Method: The exemplary compounds of Formula I and structurally related compounds were synthesized to assess their structure-activity relationship. […] The IC50 values for each exemplary compound were used to calculate the selectivity of the exemplary compounds for Formula I to HDAC6. The selectivity of each exemplary compound for HDAC6 was determined from examining the potency of HDAC6 in relation to the highest binding affinity of the other HDAC isoforms tested.

[9] = tested on: panel of 97 kinases; test: Kinome screen; format: biochemical; conditions: kinase screen
[10] = tested on: MM.1S; test: Cytotoxicity in cell lines; format: cell-based; conditions: Homo sapiens, MM1.S; Table 4
Method: as §1

[11] = tested on: HeLa cells; test: Immunofluorescence analysis of α-tubulin and histone H3 acetylation; format: cell-based; conditions: 6 h treatment
Text: Similar analysis is shown for exemplary compound I-34 in FIG. 19.

[12] = MV4-11, Table 5, read-out: IC50 MV-411
[13] = K562, Table 5, read-out: IC50 K562
[14] = MOLM-13, Table 5, read-out: IC50 MOLM-13
[15] = K562, Table 4, read-out: IC50 K562
[16] = MV4-11, Table 4, read-out: IC50 MV-411
[17] = MOLM-13, Table 4, read-out: IC50 MOLM-13

**Q.** For `O=C(/C=C/c1ccc(CN(Cc2cccnc2F)S(=O)(=O)c2cc(F)c(F)c(F)c2F)c(C(F)(F)F)c1)NO` [Compound I-79], which IC50 [1, 12] is on record?
**A.** The IC50 was 329 nM.

**Q.** And the IC50 [2, 13]?
**A.** Its IC50 is 25.9 µM.

**Q.** And the IC50 [3, 14]?
**A.** The IC50 was 7.9 µM.

**Q.** With `O=C(NO)c1ccc(CN(Cc2cccnc2F)S(=O)(=O)c2cc(F)c(F)c(F)c2F)cc1` [Compound I-19, N-hydroxy-4-((2,3,4,5-tetrafluoro-N-((2-fluoropyridin-3-yl)methyl)phenylsulfonamido)methyl)benzamide] as the molecule, how does the IC50 [2, 15] read?
**A.** The IC50 was 5.6 µM.

**Q.** What does the source list for `O=C(NO)c1ccc(CN(Cc2cccnc2)S(=O)(=O)c2cc(F)c(F)c(F)c2F)c(F)c1` [Compound I-30, 3-fluoro-N-hydroxy-4-((2,3,4,5-tetrafluoro-N-(pyridin-3-ylmethyl)phenylsulfonamido)methyl)benzamide]?
**A.** IC50 ([4]; Table 4, healthy cells): 6.1 µM; IC50 ([5]; Table 4, healthy cells): 4.1 µM; IC50 [1, 16]: 607 nM; IC50 [2, 15]: 9.3 µM; IC50 [3, 17]: 2.9 µM; solubility kinetic [6]: 46 ± 4.4 µM

**Q.** What does the source list for `O=C(/C=C/c1ccc(CN(C2CCCC2)S(=O)(=O)c2c(F)c(F)c(F)c(F)c2F)cc1)NO` [Compound I-57, (E)-3-(4-((N-cyclopentyl-2,3,4,5,6-pentafluorophenylsulfonamido)methy)phenyl)-N-hydroxyacrylamide]?
**A.** IC50 [7]: > 50 µM; IC50 [8]: 10 to 30 nM

**Q.** What does the source list for `O=C(NO)c1ccc(CN(Cc2cccnc2F)S(=O)(=O)c2cc(F)c(F)c(F)c2F)c(F)c1` [Compound I-32, 3-fluoro-N-hydroxy-4-((2,3,4,5-tetrafluoro-N-((2-fluoropyridin-3-yl)methyl)phenylsulfonamido)methyl)benzamide]?
**A.** IC50 ([4]; Table 4, healthy cells): 7.1 µM; IC50 ([5]; Table 4, healthy cells): 5.1 µM; IC50 [1, 16]: 389 nM; IC50 [2, 15]: 8.6 µM; IC50 [3, 17]: 1.98 µM

**Q.** For `O=C(CCCCCCNC(=O)c1cnc(N(c2ccccc2)c2ccccc2)nc1)NO` [Ricolinostat, reference compound], which IC50 [4] is on record?
**A.** Its IC50 is 5.7 µM.

**Q.** What about the IC50 [5] of the same molecule?
**A.** The IC50 was 4.9 µM.

**Q.** And the IC50 ([1]; MV4-11, read-out: IC50 MV-411)?
**A.** Its IC50 is 656 nM.

**Q.** What about the IC50 ([2]; K562, read-out: IC50 K562) of the same molecule?
**A.** The IC50 was 12.8 µM.

**Q.** What about the IC50 ([3]; MOLM-13, read-out: IC50 MOLM-13) of the same molecule?
**A.** The IC50 was 6.49 µM.

**Q.** What about the solubility kinetic [6] of the same molecule?
**A.** Its solubility kinetic is 26.1 ± 11.3 µM.

**Q.** For `O=C(/C=C/c1ccc(CN(C2CC2)S(=O)(=O)c2c(F)c(F)c(F)c(F)c2F)cc1)NO` [Compound I-56], which IC50 [7] is on record?
**A.** Its IC50 is over 50 µM.

**Q.** What does the source list for `CC(C)N(Cc1ccc(C(=O)NO)cc1)S(=O)(=O)c1cc(F)c(F)c(F)c1F` [Compound I-12, N-hydroxy-4-((2,3,4,5-tetrafluoro-N-isopropylphenylsulfonamido)methyl)benzamide]?
**A.** solubility kinetic [6]: 74.5 ± 3 µM; inhibitory activity on a panel of 97 kinases [9]: limited to no inhibitory activity

**Q.** Which results are given for `CC(C)CN(Cc1ccc(C(=O)NO)cc1)S(=O)(=O)c1cc(F)c(F)c(F)c1F` [Compound I-54, N-hydroxy-4-(((2,3,4,5-tetrafluoro-N-isobutylphenyl)sulfonamido)methyl)benzamide]?
**A.** IC50 [10]: 700 nM; IC50 [1, 16]: 500 nM

**Q.** What does the source list for `O=C(NO)c1ccc(CN(C2CCCC2)S(=O)(=O)c2cc(F)c(F)c(F)c2F)cc1` [Compound I-51, 4-(((N-cyclopentyl-2,3,4,5-tetrafluorophenyl)sulfonamido)methyl)-N-hydroxybenzamide]?
**A.** IC50 [10]: 2700 nM; IC50 [1, 16]: 2800 nM

**Q.** Which IC50 [1, 12] does the source give for `O=C(/C=C/c1ccc(CN(Cc2cccnc2)S(=O)(=O)c2cc(F)c(F)c(F)c2F)c(C(F)(F)F)c1)NO` [Compound I-80] here?
**A.** The IC50 was 338 nM.

**Q.** What about the IC50 [2, 13] of the same molecule?
**A.** The IC50 was 16.3 µM.

**Q.** What about the IC50 [3, 14] of the same molecule?
**A.** Its IC50 is 7.6 µM.

**Q.** For `CC(C)N(Cc1cc(F)c(C(=O)NO)cc1F)S(=O)(=O)c1cc(F)c(F)c(F)c1F` [Compound I-52, 2,5-difluoro-N-hydroxy-4-(((2,3,4,5-tetrafluoro-N-isopropylphenyl)sulfonamido)methyl)benzamide], which IC50 [10] is on record?
**A.** Its IC50 is 400 nM.

**Q.** What about the IC50 [1, 16] of the same molecule?
**A.** Its IC50 is 1000 nM.

**Q.** Which IC50 [1, 16] does the source give for `O=C(NO)c1ccc(CN(CCc2ccccc2F)S(=O)(=O)c2cc(F)c(F)c(F)c2F)cc1` [Compound I-21, N-hydroxy-4-((2,3,4,5-tetrafluoro-N-(2-fluorophenethyl)phenylsulfonamido)methyl)benzamide] here?
**A.** Its IC50 is 478 nM.

**Q.** And the IC50 [2, 15]?
**A.** Its IC50 is 7.9 µM.

**Q.** And the IC50 [3, 17]?
**A.** Its IC50 is 1.7 µM.

**Q.** For `O=C(CCCCCCNC(=O)c1cnc(N(c2ccccc2)c2ccccc2Cl)nc1)NO` [Citarinostat, reference compound], which “effect on α-tubulin acetylation (immunofluorescence)” value [11] is on record?
**A.** The value was “no preferential acetylation on α-tubulin until high concentrations”.

**Q.** With `CC(C)N(Cc1ccc(CC(=O)NO)cc1)S(=O)(=O)c1cc(F)c(F)c(F)c1F` [Compound I-70, N-hydroxy-2-(4-((2,3,4,5-tetrafluoro-N-isopropylphenylsulfonamido)methyl)phenyl)acetamide] as the molecule, how does the IC50 [1, 12] read?
**A.** The IC50 was 2500 nM.

**Q.** What about the IC50 [8] of the same molecule?
**A.** The IC50 was 100 to 150 nM.

**Q.** With `COc1cc(/C=C/C(=O)NO)ccc1CN(Cc1cccnc1F)S(=O)(=O)c1cc(F)c(F)c(F)c1F` [Compound I-77] as the molecule, how does the IC50 [1, 12] read?
**A.** The IC50 was 1100 nM.

**Q.** And the IC50 [2, 13]?
**A.** Its IC50 is 72.8 µM.

**Q.** What about the IC50 [3, 14] of the same molecule?
**A.** The IC50 was 3.3 µM.
